Where “and” joins values, the source holds several entries; their conditions need not be identical. Identical values can stand only once.
Columns and labels:
Osmolarity of solutions = format: physicochemical; details: 4 wt % (w/v) of each component in solution
Description: Formulation and production of disinfectant compositions of the present disclosure are generally straightforward. […] The disinfectant solution may then be sterilized using conventional means, such as filtration and/or ultrafiltration, and other means. […] The solutions are preferably formulated using USP materials.

P. aeruginosa = experiment: Checkerboard Titration (FIC index); format: cell-based; details: for FIC of the single component (FIC-NAC, FIC-VC): P. aeruginosa, MIC in combination / MIC alone
Procedure: (§1) The method used was a NCCLS micro-dilution procedure. […] The following concentrations were tested (for S. aureus see FIG. 9 and for P. aeruginosa see FIG. 7 for combinations at a pH<4): [table] Fraction Inhibitory Concentration (FIC) is defined as the MIC of the compound in combination divided by the MIC of the compound alone. If the FIC index is ≦0.5, the combination is interpreted to be synergistic; <1 but >0.5-as partially synergistic; =1 as additive; >1 but <4 as indifferent; and ≧4 as antagonistic.

[1] = tested on: blood coagulation (clotting); experiment: Prothrombin Time (PT) Assay, INR; format: biochemical; details: single agent, within the tested range
Procedure: Experiments were conducted to assess the anticoagulant capacities of NAC, Vitamin C and combinations of NAC and Vitamin C via a Prothrombin Time (PT) Assay. A PT assay (TM-4339-063) was conducted using a Coagulation Analyzer to obtain PT instead of manually recording the PT. […] INR (International Normalized Ratio) is a system established by the World Health Organization (WHO) and the International Committee on Thrombosis and Hemostasis for reporting the results of blood coagulation (clotting) tests. INR is calculated as: INR=([…] sample/PTnormal control)^ISI ISI (International Sensitivity Index) indicates the sensitivity of individual thromboplastin. […] All the PTs greater than 3× the […] 1 (normal control) were replaced with 31 seconds.

blood coagulation = details: patients; cited publications; cited from earlier work
[2] = tested on: Staphylococcus aureus (organism # 25923); experiment: pH experiments: MIC at adjusted pH, NCCLS micro-dilution; format: cell-based; details: S. aureus
Procedure: (§2) In order to determine MIC and MBC (minimum bactericidal concentration) a National Committee on Clinical Laboratory Standards (NCCLS) micro-dilution procedure was followed. […] In the current protocol 100 μL of MHB was mixed with 90 μL of formulation and 10 μL of log 8 organism or the highest achievable concentration. The concentration of the formulation was adjusted to obtain the required concentration in the final solution. The mixture was incubated at 37 degree C. for 16-24 hrs. After 16-24 hours the absorbance value was read at 600 nm. The obtained data was corrected by subtracting the appropriate blanks. Finally, the wells having an absorbance≧0.1 were marked + and <0.1 were marked −. The + symbol indicated growth while − symbol indicates no growth. […] Staphylococcus aureus (organism # 25923) was obtained from ATCC. […] N-acetyl cysteine (NAC) was used (Acros, Catalogue # 160280250, Lot # A0229576). A 4 wt % NAC solution in water was prepared at a pH of 4. A 4 wt % NAC solution in water was prepared at a pH of 6. […] These solutions were then serially diluted as necessary to obtain the required concentrations. […]

S. aureus = experiment: Checkerboard Titration (FIC index), pH<4; format: cell-based; details: for FIC of the single component (FIC-NAC, FIC-VC): S. aureus, MIC in combination / MIC alone
Procedure: as §1

[3] = tested on: Staphylococcus aureus (organism # 25923); experiment: pH experiments: MBC (minimum bactericidal concentration); format: cell-based; details: S. aureus
Procedure: as §2

[4] = cited from earlier work
[5] = in vivo; cited from earlier work
[6] = tested on: Staphylococcus aureus (organism # 25923); experiment: MIC test, NCCLS micro-dilution; format: cell-based; details: S. aureus; pH not adjusted (pH < 4); listed as VC
Procedure: (§3) The minimum concentration of a composition required to inhibit growth is known as the minimum inhibitory concentration (MIC). In order to determine MIC a National Committee on Clinical Laboratory Standards (NCCLS) micro-dilution procedure was followed. […] In the current protocol 100 μL of MHB was mixed with 90 μL of formulation and 10 μL of log 8 organism or the highest achievable concentration. The concentration of the formulation was adjusted to obtain the required concentration in the final solution. The mixture was incubated at 37 degree C. for 16-24 hrs. After 16-24 hours the absorbance value was read at 600 nm. The obtained data was corrected by subtracting the appropriate blanks. Finally, the wells having an absorbance≧0.1 were marked + and <0.1 were marked −. The + symbol indicated growth while − symbol indicates no growth. […] In cases where the positive growth controls corrected absorbance is lower than 0.5, an alternate rule is utilized which is “absorbance<than 20% of positive growth control is marked as − growth, while absorbance≧than 20% of positive growth control is marked as + growth”. Staphylococcus aureus (organism # 25923), Pseudomonas aeruginosa (Organism # 27853) and Candida Albicans (Organism # 10231) was obtained from ATCC. […] N-acetyl cysteine (NAC) was used (Acros, Catalogue # 160280250, Lot # A0229576). A 8 wt % NAC solution in water was prepared. […]

[7] = tested on: Candida Albicans (Organism # 10231); experiment: MIC test, NCCLS micro-dilution; format: cell-based; details: C. albicans; pH not adjusted
Procedure: as §3

[8] = pH of 6, 2.0 wt % starting point
[9] = pH=6, 2.0% (w/v) starting point

osmolarity (Osmolarity of solutions) [mOsm/Kg] | MIC-NAC / MIC-VC (MIC of the component in combination with the other) (P. aeruginosa; P. aeruginosa in MHB) | MIC ([2]; pH of 4) | MIC [2, 8] [wt %] | MIC ([2]; pH=4) | MIC [2, 9] | MIC-NAC / MIC-VC (MIC of the component in combination with the other) (S. aureus; S. aureus in MHB) | MIC ([2]; pH of 6, 2.0 wt % starting point, listed as VC) [wt %] | MIC [6] [wt %] | MIC [7] [wt %] | SMILES | FIC of the single component (FIC-NAC, FIC-VC) (P. aeruginosa) | Change of INR with increase in concentration [1] | Anti-coagulant effect (literature) (blood coagulation) | FIC of the single component (FIC-NAC, FIC-VC) (S. aureus) | MBC ([3]; pH of 4) [wt %] | MBC ([3]; pH=4) | Solubility in chloroform and ether [4] | dose shown to be safe for administration to humans [5] [mg/day]
237 | 0.25 % (w/v) | 2.0 wt % and 2 wt % | >2 | 2.0 % (w/v) | > 2.0 % (w/v) | 0.25 % (w/v) | – | – | – | CC(=O)N[C@@H](CS)C(=O)O [NAC, N-acetyl-L-cysteine] | 0.35 | increase in INR | some anti-coagulant effect | 0.4 | 2.0 | 2.0 % (w/v) | practically insoluble | 1200
223 | – | 0.5 wt % | > 2.0 | 0.5 % (w/v) | > 2.0 % (w/v) | – | >2 | 0.25 | > 8 | O=C1O[C@H]([C@@H](O)CO)C(O)=C1O [Vitamin C, L-ascorbic acid] | 0.35 | no significant increase in INR | has not been identified as an effective anticoagulant when compared with heparin | 0.4 | 1.0 | 1.0 % (w/v) | – | –

Reference: patent US20090170932A1, “DISINFECTANT COMPOSITIONS, METHODS AND SYSTEMS” (Tyco Healthcare Group LP, priority 2007, published 2009)
